# Patent publication US6268181A, “Methods for producing a potentiator of Bacillus pesticidal activity” (Valent BioSciences, Corporation, priority 1998, dated 2001)
# Key:
# Plutella xylostella = test: Diet incorporation bioassay, third instar Plutella xylostella; type: in vivo; settings: BIOBIT HPWP
# Description: (§1) B.t.k. activity is determined by an artificial diet incorporation bioassay using third instar Spodoptera exigua larvae, second instar Helicoverpa zea larvae, third instar Spodoptera frugiperda larvae, second instar Heliothis virescens larvae, third instar Trichoplusia ni larvae, third instar Pseudoplusia includens larvae, third instar Plutella xylostella larvae, third instar Spodoptera littoralis, and third instar Mamestra brassicae larvae.
# (§2) To determine the level of potentiation by adding Ia to B.t. products, and establish the range of insects that are affected, diet incorporation bioassays are performed. In the experiments with high concentrations of Ia against Spodoptera exigua (7.4-23.7 g Ia/BIU), purified Ia (70% active ingredient, 30% acetate counter ion) is used to potentiate BIOBIT™ FC (FC represents flowable concentrate). […] S. littoralis and M. brassicae are tested using FLORBAC™ HPWP and Ia.
# (§3) The various B.t. products are weighed and Ia is added to give 0.1 to 237 g Ia/BIU. The volume is adjusted with 0.1% Tween™. The samples are sonicated for 1 minute and then diluted to final volume. Neat samples (without Ia) and reference substances are prepared as well. Reference substances include B.t.k.
# (§4) Standard artificial diet composed of water, agar, sugar, casein, wheat germ, methyl paraben, sorbic acid, linseed oil, cellulose, salts, and vitamins are prepared in a 20 L heated kettle. This provides enough diet to test 10 to 12 samples with seven different concentrations of each test substance. The B.t. solutions are serially diluted to give 16 ml aliquots. Each aliquot is added to 184 g of molten diet. The mixture is subsequently homogenized and then poured into a plastic tray bearing 40 individual cells. Three control trays are prepared for each batch of diet. Once the diet has cooled and solidified, one insect of a known age (2-3 instar) is added to each cell, and the trays are covered with a perforated sheet of clear mylar. The trays are placed on racks and incubated for four days at 28° C. and 65% relative humidity.
# (§5) After four days, insect mortality is rated. […] Percent mortality is calculated and the data is analyzed via parallel probit analysis. LC50 s, LC90 s, the slope of the regression lines, coefficient of variation, and potencies are estimated. Samples are run a minimum of 3 times or until three potencies are within 20% of a calculated mean for each sample. To calculate the increase in activity associated with each concentration of Ia, the LC50 of the B.t./Ia sample is corrected to reflect the amount of B.t. in the sample. The Lc50 s of the paired neat samples are divided by the corrected LC50 values to give the fold reduction in LC50 associated with Ia.
# Pseudoplusia includens = test: Diet incorporation bioassay, third instar Pseudoplusia includens; type: in vivo; settings: BIOBIT HPWP
# Description: as §1, §2, §3, §4, §5
# Heliothis virescens = test: Diet incorporation bioassay, second instar Heliothis virescens; type: in vivo; settings: BIOBIT HPWP, 3.2 g Ia per BIU
# Description: as §1, §2
# (§6) The various B.t. products are weighed and Ia is added to give 0.1 to 237 g Ia/BIU. The volume is adjusted with 0.1% Tween™. The samples are sonicated for 1 minute and then diluted to final volume. Neat samples (without Ia) and reference substances are prepared as well. Reference substances include B.t.k. […]
# (§7) After four days, insect mortality is rated. […] Percent mortality is calculated and the data is analyzed via parallel probit analysis. […]
# Mamestra brassicae = test: Diet incorporation bioassay, third instar Mamestra brassicae; type: in vivo; settings: FLORBAC HPWP, 2.0 g Ia per BIU
# Description: as §1, §2, §6, §7
# Spodoptera littoralis = test: Diet incorporation bioassay, third instar Spodoptera littoralis; type: in vivo; settings: FLORBAC HPWP, 2.0 g Ia per BIU
# Description: as §1, §2, §6, §7
# [1] = Solubility of the active compound; type: physicochemical
# Spodoptera frugiperda = test: Diet incorporation bioassay, third instar Spodoptera frugiperda; type: in vivo; settings: BIOBIT HPWP
# Description: as §1, §2, §3, §4, §5
# Spodoptera exigua [2] = test: Diet incorporation bioassay, third instar Spodoptera exigua; type: in vivo
# Description: as §1, §2, §3, §4, §5
# The potentiation of various produces on Spodoptera exigua by Ia is determined using diet incorporation bioassays described supra. Ia/B.t. product mixture is incorporated into an agar-based wheat germ casein diet. The insects are placed on the diet for four days and held at 28° C. Mortality is recorded and analyzed using probit analysis. LC50, LC90 and potency are calculated from matched product lacking Ia. The results shown in Table V indicate that Ia potentiate various B.t.k. and B.t.a. products obtained from various sources. The B.t. strains contained in these products are described in Section 5.2., supra.
# Spodoptera exigua [3] = test: Spodoptera exigua micro-bioassay (potentiation of Bt Cry protein by Ia); type: in vivo
# Description: Activity is monitored by a Spodoptera exigua micro-bioassay, and purity is determined by capillary electrophoresis. […] The trays containing the various samples are air dried. Two to four 2nd or early 3rd instar Spodoptera exigua are added to the wells containing the dried sample. The wells are sealed with mylar poked with holes and are incubated for 2-3 days at 30° C. Degree of stunting and percent mortality are then recorded. Typically, 5 replicate wells are run for each sample.
# *Mortality = # insects dead/# total insects after 2 days
# .dagger.Stunt score is defined by the average size of the live insect
# larvae at the end of the bioassay: 4.0 = untreated control, 3.0 = 75% size
# of untreated control, 2.0 = 50% size of untreated control, 1.0 = 25% size
# of untreated control, 0.0 = no growth or size unchanged from start of […]
# [4] = Stability of Ia determined by bioassay; type: physicochemical
# Description: Activity is monitored by a Spodoptera exigua micro-bioassay, and purity is determined by capillary electrophoresis. Sample consisting of 50 μl of Ia and 50 μl of CryIA(c) protein (15 μg/ml) purified from BIOBIT™ FC (100 μl), is applied to individual wells of a jelly tray containing 500 μl of solidified artificial insect diet. The trays containing the various samples are air dried. Two to four 2nd or early 3rd instar Spodoptera exigua are added to the wells containing the dried sample. The wells are sealed with mylar poked with holes and are incubated for 2-3 days at 30° C. Degree of stunting and percent mortality are then recorded. Typically, 5 replicate wells are run for each sample.
# Further, it is stable when subjected to direct sunlight for at least 10 hours. Ia is stable at pH 2 for 3 days, but unstable at pH 12.
# Helicoverpa zea = test: Diet incorporation bioassay, second instar Helicoverpa zea; type: in vivo; settings: BIOBIT HPWP, 3.2 g Ia per BIU
# Description: as §1, §2, §6, §7
# Trichoplusia ni = test: Diet incorporation bioassay, third instar Trichoplusia ni; type: in vivo; settings: BIOBIT HPWP
# Description: as §1, §2, §3, §4, §5
# Lobesia bothrana = Lobesia bothrana assay (larvae drinking dilution, grape berries); type: in vivo; settings: BIOBIT HPWP, 2.0 g Ia per BIU
# Description: The following procedure is used to assay for Lobesia bothrana. Vine grapes attacked by Lobesia bothrana are collected in an unsprayed field and larva is removed. A dilution series of Ia (250 μg/ml, 500 μg/ml, and 1000 μg/ml) is made in water. One larva is put in the middle of the petri dish. If the larva is observed to drink, it is moved into a petri dish with freshly cut grape berries. The larvae are stored at 22° C. for 3-4 days.
smiles,measurement,setting,value
NC(=O)NCC(NC(=O)C(O)C(O)C(N)C(O)CC(O)C(N)CO)C(N)=O (centres unmarked) [Ia],"Increase in activity, Fold reduction in LC50",Plutella xylostella; 0.2 g Ia per BIU,1.6 Fold
same,"Increase in activity, Fold reduction in LC50",Plutella xylostella; 0.8 g Ia per BIU,1.3 Fold
same,"Increase in activity, Fold reduction in LC50",Plutella xylostella; 2.0 g Ia per BIU,1.4 Fold
same,"Increase in activity, Fold reduction in LC50",Plutella xylostella; 4.0 g Ia per BIU,1.9 Fold
same,"Increase in activity, Fold reduction in LC50",Pseudoplusia includens; 0.1 g Ia per BIU,0 Fold
same,"Increase in activity, Fold reduction in LC50",Pseudoplusia includens; 0.2 g Ia per BIU,1.2 Fold
same,"Increase in activity, Fold reduction in LC50",Pseudoplusia includens; 0.8 g Ia per BIU,2.1 Fold
same,"Increase in activity, Fold reduction in LC50",Pseudoplusia includens; 2.0 g Ia per BIU,2.4 Fold
same,"Increase in activity, Fold reduction in LC50",Pseudoplusia includens; 4.0 g Ia per BIU,3.4 Fold
same,"Increase in activity, Fold reduction in LC50",Heliothis virescens,4.2 Fold
same,"Increase in activity, Fold reduction in LC50",Mamestra brassicae,4.9 Fold
same,"Increase in activity, Fold reduction in LC50",Spodoptera littoralis,8.6 Fold
same,solubility in organic solvents,[1]; organic solvents,not soluble in organic solvents
same,water solubility,[1]; water,water soluble
same,"Increase in activity, Fold reduction in LC50",Spodoptera frugiperda; 0.2 g Ia per BIU,2.2 Fold
same,"Increase in activity, Fold reduction in LC50",Spodoptera frugiperda; 0.8 g Ia per BIU,3.9 Fold
same,"Increase in activity, Fold reduction in LC50",Spodoptera frugiperda; 2.0 g Ia per BIU,7.2 Fold
same,"Increase in activity, Fold reduction in LC50",Spodoptera frugiperda; 4.0 g Ia per BIU,11.6 Fold
same,"Increase in activity, Fold reduction in LC50","Spodoptera exigua [2]; BIOBIT FC, 7.4 g Ia per BIU, purified Ia",13 Fold
same,"Increase in activity, Fold reduction in LC50","Spodoptera exigua [2]; BIOBIT FC, 15 g Ia per BIU, purified Ia",26 Fold
same,"Increase in activity, Fold reduction in LC50","Spodoptera exigua [2]; BIOBIT FC, 30 g Ia per BIU, purified Ia",34 Fold
same,"Increase in activity, Fold reduction in LC50","Spodoptera exigua [2]; BIOBIT FC, 118 g Ia per BIU, purified Ia",59 Fold
same,"Increase in activity, Fold reduction in LC50","Spodoptera exigua [2]; BIOBIT FC, 237 g Ia per BIU, purified Ia",79 Fold
same,"Increase in activity, Fold reduction in LC50","Spodoptera exigua [2]; BIOBIT HPWP, 0.1 g Ia per BIU",1.5 Fold
same,"Increase in activity, Fold reduction in LC50","Spodoptera exigua [2]; BIOBIT HPWP, 0.2 g Ia per BIU",1.7 Fold
same,"Increase in activity, Fold reduction in LC50","Spodoptera exigua [2]; BIOBIT HPWP, 2.0 g Ia per BIU",4.3 Fold
same,"Increase in activity, Fold reduction in LC50","Spodoptera exigua [2]; BIOBIT HPWP, 4.0 g Ia per BIU",7.5 Fold
same,potentiation of crystal delta-endotoxin,Spodoptera exigua [3]; Bacillus thuringiensis subsp. kurstaki and aizawai crystal delta-endotoxin proteins,potentiate the activity
same,level of potentiation,Spodoptera exigua [3]; CryIC inclusions,250 fold
same,potentiation of pesticidal activity,Spodoptera exigua [3]; CryII and CryIC inclusions,also potentiated
same,potentiation,Spodoptera exigua [3]; CryII inclusions,125 fold
same,Mortality,"Spodoptera exigua [3]; Ia alone, no Bt protein, after 2 days",0/5
same,Stunt Score,"Spodoptera exigua [3]; Ia alone, no Bt protein, 4.0 = untreated control, 0.0 = no growth",4.0
same,potentiation of pesticidal activity,"Spodoptera exigua [3]; formulated B.t.k., isolated crystals, full-length or truncated CryIA proteins",all potentiated
same,level of potentiation,Spodoptera exigua [3]; full-length CryIA(c),approximately 320 fold
same,potentiation of pesticidal activity,"Spodoptera exigua [3]; individual truncated CryIA(a), (b), and (c) proteins",potentiate the activity
same,level of potentiation,"Spodoptera exigua [3]; truncated CryIA proteins, CryII and CryIC inclusions",100-200 fold
same,activity of Ia alone,Spodoptera exigua [3]; without Cry protein,inactive alone
same,stability,[4]; autoclaving (>190C),loses all activity
same,stability,[4]; boiling for 5 minutes,stable
same,stability,[4]; direct sunlight for at least 10 hours,stable
same,stability,[4]; exposed to periodic acid or concentrated HCl,lose all activity
same,stability,[4]; pH 2 for 3 days,stable
same,stability,[4]; pH 12,unstable
same,"Increase in activity, Fold reduction in LC50",Helicoverpa zea,12.6 Fold
same,"Increase in activity, Fold reduction in LC50",Trichoplusia ni; 0.1 g Ia per BIU,1.1 Fold
same,"Increase in activity, Fold reduction in LC50",Trichoplusia ni; 0.2 g Ia per BIU,1.2 Fold
same,"Increase in activity, Fold reduction in LC50",Trichoplusia ni; 2.0 g Ia per BIU,2.0 Fold
same,"Increase in activity, Fold reduction in LC50",Trichoplusia ni; 4.0 g Ia per BIU,3.1 Fold
same,"Increase in activity, Fold reduction in LC50",Lobesia bothrana,3.0 Fold
